Assay [1] relates to HeLa cells expressing the HT178-cpNLuc-179 chimera. The assay can be described thus: Bioluminescence-triggered uncaging of azido-quenched fluorophores inside cells. As to conditions: 2-20 μM fluorophore, 20 μM fluorofurimazine 45 minutes, with/without Ir-9049 or Ru-8974 (3 μM). The assay is classed as cell-based. As for the experimental part: Structure of exemplary azido quenched fluorophores and a cartoon depicting bioluminescent-triggered fluorescence turn-on are included in FIG. 9. Briefly, upon absorbance of light, the excited catalyst engages in energy transfer events with the azido-quenched fluorophore to generate a nitrene through elimination of an N2 group, which restore the fluorophore's fluorescence. HeLa cells were transfected with a DNA construct encoding HT178-cpNLuc-179 that was diluted 50-fold into promoterless carrier DNA, plated in flasks at 2×10^5 cell/mL, and incubated 16-18 hours at 37° C., 5% CO2. The next day, cells were collated, replated in 24-well plates at 2×10^5 cell/mL, and incubated overnight at 37° C., 5% CO2. […] Cells were then washed twice, 15 minutes each, in HBSS buffer to remove excess unreacted catalyst or chloroalkane-biotin.

The test system of assay [2] is Firefly (FFLY) luciferase. The assay can be described thus: Bioluminescence-triggered uncaging of o-nitrobenzyl-F-luciferin, FFLY luminescence readout. The format is biochemical. As for the experimental part:
(§1) As depicted in FIG. 18A, bioluminescence-triggered ruthenium-catalyzed excitation of o-nitrobenzyl-caged F-luciferin to liberate F-luciferin, which is then available as a substrate for FFLY luciferase. Synthesis of o-nitrobenzyl-caged F-luciferin is provided in Example 11. […] Residual NanoLuc bioluminescence signal was quenched by treatment with 10 mM competitive extracellular NanoLuc inhibitor before subsequent 5-fold dilution into FFLY detection plate comprising FFLY luciferase, ATP, and Bright-Glo buffer. Bioluminescence was measured before and after dilution into the FFLY detection plate.

In assay [3] the test system is Firefly (FFLY) luciferase. Briefly: Bioluminescence-triggered uncaging of p-azidobenzyl-luciferin, FFLY luminescence readout. The format is biochemical. How it is done: as §1, with “FIG. 17A,” for “FIG. 18A,”, “ruthenium-catalyzed reduction” for “ruthenium-catalyzed excitation”, “of p-azidobenzyl-caged luciferin” for “of o-nitrobenzyl-caged F-luciferin”, “liberate luciferin,” for “liberate F-luciferin,”, “as” for “as a”, “for Firefly (FFLY)” for “for FFLY”

Assay [4] deals with NanoLuc (Nluc) enzyme. The assay can be described thus: Bioluminescence-triggered release of serotonin from caging Ru complex. As to conditions: 200 μM RuBi5, 6 nM NanoLuc, 5 μM fluorofurimazine, 40 minutes. The assay is classed as biochemical. How it is done:
As depicted in FIG. 16A, the amino-signaling molecule serotonin is caged through a coordination reaction with the [Ru^2+(bpy)2]2 core. Upon absorbance of light, the excited ruthenium catalyst induces an oxidation-driven release of serotonin while a water molecule occupies the vacant coordination site.
Here, 6 nM NanoLuc (Nluc) enzyme and 5 μM fluorofurimazine, in the presence and absences of 200 μM RuBi5 (Abcam), were incubated in a white plate for 40 minutes. Reactions were then transferred to a black plate, and 200 μM RuBi5 (caged) added to the control wells.

The mark [5] stands for this setting: 60 nM HT178-cpNLuc-179 tethered/untethered to Ru-8974, 0-10 μM, with/without 20 μM fluorofurimazine, 45 minutes.
[6] abbreviates: fold increase in FFLY luminescence.

With `CC[n+]1c(-c2ccccc2)c2cc(N=[N+]=[N-])ccc2c2ccc(N)cc21.[Br-]` [EMA, Ethidium Monoazide Bromide, reference compound], the “fluorescence turn-on upon uncaging” value in assay [1] was “pronounced catalyst dependent increase in fluorescence”.

Take `CCN(CC)c1ccc2c(C)c(N=[N+]=N)c(=O)oc2c1` [PBI-8977]: the “fluorescence turn-on upon uncaging” value in assay [1] was “pronounced catalyst dependent increase in fluorescence”.

Take `O=C(O)[C@H]1CSC(c2nc3cc(F)c(OCc4ccc([N+](=O)[O-])cc4)cc3s2)=N1` [o-nitrobenzyl-F-luciferin, (S)-2-(5-fluoro-6-((4-nitrobenzyl)oxy)benzo[d]thiazol-2-yl)-4,5-dihydrothiazole-4-carboxylic acid]: the “FFLY luminescence after uncaging” value in assay [2] (setting [5]) is “Bioluminescence and Ru-dependent increase in FFLY dependent bioluminescence”. Further, in assay [2] (setting [6]), the “uncaging efficiency, bioluminescence versus LED” value was “higher efficiency for bioluminescence-driven uncaging compared to LED”.

For the compound `[N-]=[N+]=Nc1ccc(COc2ccc3nc(C4=N[C@@H](C(=O)O)CS4)sc3c2)cc1` [p-azidobenzyl-luciferin, (S)-2-(6-((4-azidobenzyl)oxy)benzo[d]thiazol-2-yl)-4,5-dihydrothiazole-4-carboxylic acid], the “FFLY luminescence after uncaging” value in assay [3] (setting [5]) is “Bioluminescence and Ru-dependent increase in FFLY dependent bioluminescence”. Besides, the “uncaging efficiency, bioluminescence versus LED” value in assay [3] (setting [6]) is on record as “higher efficiency for bioluminescence-driven uncaging compared to LED”.

For [Ru(bpy)2(PMe3)(5HT)]^2+ [RuBi5], the “serotonin emission after bioluminescence exposure” value in assay [4] is recorded as “bioluminescence-dependent increase in the 340 nm peak emission for serotonin”.

Values taken from patent US20240377404A1, “BIOLUMINESCENCE-TRIGGERED PHOTOCATALYTIC ACTIVATION” (Promega Corporation, priority 2023, published 2024).
